Like-named read-outs stand apart in the source and are kept apart here. Each block holds one compound with its values, some of them ahead of it.
Experiments:
[1] = test system: pollen tube of Fuji apple; test: Pollen tube elongation of self-pollen in medium with style-specific RNase and inhibitor; format: cell-based; conditions: 10 units S1 RNase in medium
Procedure: To investigate the effect of the style-specific S1 RNase purified in the example 1-4 on pollen tube elongation of self-pollen, experiment was conducted as follows. First of all, only the self-pollen made from a stamen of Fuji apple was isolated. The isolated pollen was cultured in the medium for pollen tube elongation, which was added with 0, 2, 4 and 6 units (mg^−1min^−1ml) of S1 RNase purified in the example 1-4, respectively, in a dark condition for 24 hours at 28° C. The medium for pollen tube elongation is composed of 20 mM Mes-KOH (pH 6.0), 0.07% Ca(NO3)2·4H2O, 0.02% MgSO4·7H2O, 0.01% KNO3, 0.01% H3BO3 and 2% sucrose, and elongates pollen tube artificially.
10 units (mg^−1min^−1ml^−1) of the style-specific S1 RNase was added to the medium for pollen tube elongation, and ZnSO4 and CuSO4 were added thereto at 1 mM, 2 mM and 5 mM respectively. And then, pollen tube was cultured according to the same method as the Example 2.

wild-type tomato = format: in vivo; conditions: for Fruition rate: siloxane spreader 0.0335%, 4 days before full blooming; for concentration in which harmful effect of a medicine occurred: in vivo
Procedure: To investigate the fruition rate and harmful effects of a medicine according to the concentration of style-specific RNase inhibitors, ZnSO4 and CuSO4, style-specific RNase inhibitors of the present invention, were treated to wild-type tomato with various concentration in 4 days before full blooming.
Furthermore, to maximize the efficiency of the style-specific RNase inhibitor of the present invention as fruition control agents, ZnSO4 or CuSO4 was mixed with spreader of hexaconazole, siloxane and alkylaryl polyethoxylate class according to most appropriate usage amount by the manufacturer, and treated.
A composition mixed with the spreader of siloxane class (brand name:silhouette, Dongbu precision chemical company, Korea) to 0.0335% was prepared and the composition was treated to wild-type tomato.

elongation of pollen tube ([1]; 1 mM inhibitor): elongated again | concentration in which harmful effect of a medicine occurred (wild-type tomato): ≥ 800 ppm
SMILES: O=S(=O)([O-])[O-].[Cu+2] [CuSO4]
Fruition rate (wild-type tomato; 20 ppm): 0% | Fruition rate (wild-type tomato; 40 ppm): 15% | Fruition rate (wild-type tomato; 60 ppm): 41% | Fruition rate (wild-type tomato; 80 ppm): 59% | Fruition rate (wild-type tomato; 100 ppm): 97% | Fruition rate (wild-type tomato; 200 ppm): 92% | Fruition rate (wild-type tomato; 300 ppm): 88% | Fruition rate (wild-type tomato; 400 ppm): 85% | Fruition rate (wild-type tomato; 500 ppm): 77% | Fruition rate (wild-type tomato; 600 ppm): 73% | Fruition rate (wild-type tomato; 700 ppm): 73% | Fruition rate (wild-type tomato; 800 ppm): 44% | Fruition rate (wild-type tomato; 900 ppm): 16% | Fruition rate (wild-type tomato; 1000 ppm): 7% | Fruition rate (wild-type tomato; 1100 ppm): 0% | Fruition rate (wild-type tomato; 1200 ppm): 0% | Fruition rate (wild-type tomato; 1300 ppm): 0% | Fruition rate (wild-type tomato; 1400 ppm): 0% | Fruition rate (wild-type tomato; 1500 ppm): 0%

elongation of pollen tube ([1]; 1 mM inhibitor): elongated again | elongation of pollen tube ([1]; 2 mM inhibitor): elongated again | concentration in which harmful effect of a medicine occurred (wild-type tomato): ≥ 900 ppm
SMILES: O=S(=O)([O-])[O-].[Zn+2] [ZnSO4]
Fruition rate (wild-type tomato; 20 ppm): 0% | Fruition rate (wild-type tomato; 40 ppm): 13% | Fruition rate (wild-type tomato; 60 ppm): 31% | Fruition rate (wild-type tomato; 80 ppm): 61% | Fruition rate (wild-type tomato; 100 ppm): 99% | Fruition rate (wild-type tomato; 200 ppm): 98% | Fruition rate (wild-type tomato; 300 ppm): 93% | Fruition rate (wild-type tomato; 400 ppm): 88% | Fruition rate (wild-type tomato; 500 ppm): 85% | Fruition rate (wild-type tomato; 600 ppm): 84% | Fruition rate (wild-type tomato; 700 ppm): 74% | Fruition rate (wild-type tomato; 800 ppm): 71% | Fruition rate (wild-type tomato; 900 ppm): 62% | Fruition rate (wild-type tomato; 1000 ppm): 0% | Fruition rate (wild-type tomato; 1100 ppm): 0% | Fruition rate (wild-type tomato; 1200 ppm): 0% | Fruition rate (wild-type tomato; 1300 ppm): 0% | Fruition rate (wild-type tomato; 1400 ppm): 0% | Fruition rate (wild-type tomato; 1500 ppm): 0%

Reference: US6723680B2, “Composition for regulation of gametophytic self-incompatibility, control method of gametophytic self-incompatibility of a plant and the plant self-pollinated by using said control method” (Istech Co., Ltd., priority 2000, dated 2004)
